Reference: patent US20210038585A1 (Tesaro, Inc., priority 2017, published 2021)
Where “and” joins values, the source holds several entries; their conditions need not be identical. Identical values can stand only once. Like-named read-outs stand apart in the source and are kept apart here.

How the values were obtained:
[1] = drug substance
Method: These batches were divided into sub-lots at various time intervals and each sub-lot was analyzed for content uniformity.

[2] = crystalline solid drug substance
in vivo = conditions: 50 mg/kg
[3] = system: intracellular PARP activity; conditions: read-out: inhibited PARP activity in a whole cell assay, EC50; cited from earlier work
[4] = system: cancer cells with mutant BRCA-1 and BRCA-2; conditions: read-out: inhibited proliferation, CC50; cited from earlier work
[5] = system: intracellular PARP activity
[6] = wall friction test, FT-4 powder rheometer, stainless steel discs; type: physicochemical; conditions: niraparib batches, Ra 0.05; for BD (bulk density): wall friction test
Description: A Wall Friction test can be used to provide a measurement of the sliding resistance between a powder and the surface of process equipment, such as an encapsulator or blender or hopper. This can be important for understanding discharge behavior from hoppers, continuity of flow in transfer chutes and tablet ejection forces. It is also useful when investigating whether a powder will adhere to the wall of process equipment and various other surfaces, such as the inside of sachets, capsules and other packaging material. The measurement principle is very similar to the shear cell test, but rather than shearing powder against powder, in this test a coupon of material representing the process equipment wall is sheared against the powder in question. The FT4 Wall Friction accessory allows for a range of coupons to be investigated, and bespoke surfaces can be manufactured if required. Data is typically represented as a plot of shear stress against normal stress, allowing the determination of Wall Friction Angle (phi). The greater the wall friction angle, the higher the resistance between the powder and wall coupon.
The measurement principle is very similar to the shear cell test, but rather than shearing powder against powder, in this test a coupon of material representing the process equipment wall is sheared against the powder in question. The FT4 Wall Friction accessory allows for a range of coupons to be investigated. Wall Friction is typically represented as a plot of shear stress against normal stress, allowing the determination of Wall Friction Angle (phi). The greater the wall friction angle, the higher the resistance between the powder and wall coupon.
A wall friction test method was developed to assess the interaction between the drug substance and stainless steel. […]
The head continues to move downwards until the required normal stress is established. […] The torque required to maintain this rotational is measured which enables a “steady-state” shear stress to be calculated. […] A series of shear stress values is measured for a range of target applied stresses. […]

[7] = shear cell tests using a FT-4 powder rheometer; type: physicochemical; conditions: niraparib drug substance; for BD (bulk density): shear cell test
Method: As used herein, “flow function” or FF is a parameter commonly used to rank powder's flowability and is determined using a shear test. The data produced in the shear test represents the relationship between shear stress and normal stress, which can be plotted to define the powder's Yield Locus. Fitting Mohr stress circles to the yield locus identifies the Major Principle Stress (MPS) and Unconfined Yield Strength (UYS). Flow function is the ratio of Major Principle Stress (MPS) to the Unconfined Yield Strength (UYS):
Shear testing can be used measure powder shear properties which involves the stress limit required to initiate a powder flow. The shear testing uses a segmented rotational shear cell head and a 10 ml powder sample in the borosilicate test vessel. Powder is filled into the vessel. The shear cell head is simultaneously rotated and moved axially under the powder sample at pre-determined normal stresses as the shear stresses are measured to calculate several parameters, including the flow function (FF). Usually, powders of low cohesion have higher FF and that represents better flow properties. The permeability test can measure the ease of air transmission through a bulk powder which can be related to the powder's flowability. For example, a permeability testing can use a vented piston with an aeration base and 10 mL powder sample in the borosilicated test vessel.
Samples of powder compositions were prepared to evaluate the powder compositions disclosed herein. The following tests/measurements were made using a FT-4 powder rheometer from Freeman technology.
The cohesion (kPa), Unconfined Yield Strength (UYS) (kPa), Maj or Principle Stress (MPS) (kPa), flow function (FF) (MPS/UYS), Angle of internal friction (AIF), and bulk density (BD) (g/cm^3) were determined by carrying out shear cell tests using a FT-4 powder rheometer and the results can be seen in the tables below: […]

In the case of Cc1ccc(S(=O)(=O)O)cc1.NC(=O)c1cccc2cn(-c3ccc([C@@H]4CCCNC4)cc3)nc12 [Niraparib tosylate monohydrate, 2-{4-[(3S)-piperidin-3-yl]phenyl}-2H-indazole 7-carboxamide 4-methylbenzenesulfonate hydrate (1:1:1)], the bulk density [1] is reported as 0.34-0.45 g/cc, the tapped density [1] is reported as 0.53-0.66 g/cc and the hygroscopicity [2] is reported as “non-hygroscopic”.
In the case of NC(=O)c1cccc2cn(-c3ccc([C@@H]4CCCNC4)cc3)nc12 [Niraparib, 2-{4-[(3S)-piperidin-3-yl]phenyl}-2H-indazole-7-carboxamide], the concentration at 6 h (in vivo) is listed as roughly 4570 ng/mL, the EC50 [3] is listed as 4 nM and the CC50 [4] is listed as 10 to 100 nM. For the same compound, the tumor regression (tumor models; 50 mg/kg, daily dosing) was “tumor regression”, the tumor regression (tumor models; dosing switched from 75 mg/kg olaparib to 50 mg/kg niraparib) was “tumor regression was achieved” and the “intracellular PARP activity IC90” value ([5]; mass concentration equivalent) was 0.016 µg/mL. The IC50 ([5]; read-out: intracellular PARP activity IC50) was 4 nM and the IC90 ([5]; read-out: intracellular PARP activity IC90) was 50 nM.
With Cc1ccc(S(=O)(=O)O)cc1.NC(=O)c1cccc2cn(-c3ccc(C4CCCNC4)cc3)nc12.O (stereo not drawn) [Non Milled, Annealed A] the “BD (bulk density)” value [6] was 0.37 g/mL and 0.38 g/mL and 0.39 g/mL, the “AIF (Angle of internal friction)” value [7] was 36.54 ° and 35.80 ° and the Cohesion [7] was 1.10 kPa and 1.02 kPa. For the same compound, the “FF, flow function (MPS/UYS)” value [7] was 4.27 and 4.66, the “MPS (Major Principle Stress)” value [7] was 18.64 kPa and 18.50 kPa and the “UYS (Unconfined Yield Strength)” value [7] was 4.36 kPa and 3.97 kPa. For the same compound, the “BD (bulk density)” value [7] was 0.38 g/mL and 0.37 g/mL.
In the case of Cc1ccc(S(=O)(=O)O)cc1.NC(=O)c1cccc2cn(-c3ccc(C4CCCNC4)cc3)nc12.O (stereo not drawn) [Non Milled, Annealed D], the “WFA (Wall friction angle)” value [6] is reported as 27.29 ° and 31.10 ° and 30.98 °, the “BD (bulk density)” value [6] is reported as 0.44 g/mL and 0.46 g/mL and 0.45 g/mL and the “AIF (Angle of internal friction)” value [7] is reported as 30.49 ° and 31.30 °. For the same compound, the Cohesion [7] was 1.14 kPa and 1.06 kPa, the “FF, flow function (MPS/UYS)” value [7] was 4.12 and 4.32 and the “MPS (Major Principle Stress)” value [7] was 16.44 kPa and 16.24 kPa. For the same compound, the “UYS (Unconfined Yield Strength)” value [7] was 3.99 kPa and 3.76 kPa and the “BD (bulk density)” value [7] was 0.44 g/mL and 0.46 g/mL.
In the case of O=C(c1cc(Cc2n[nH]c(=O)c3ccccc23)ccc1F)N1CCN(C(=O)C2CC2)CC1 [olaparib], the tumor regression (tumor models; same model, dose of 75 mg/kg) is reported as “did not result in tumor regression”.
